According to US20250346613A1, “BORIC ACID PROTEASOME INHIBITOR AND USE THEREOF” (ARTIVILA BIOPHARMA, priority 2022, published 2025):

Legend:
MM.1S cell strain = test: Inhibitory activity of cell strain (CellTiter-Glo); assay type: cell-based; settings: Homo sapiens, MM1.S, 72 h incubation
Outline: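 Cells seeded at 1×10^5 per well in RPMI1640 complete medium for 24 h, then treated 72 h at 37 °C, 5% CO2 with 3-fold dilutions, final 5×10^−7 M down to 2.29×10^−10 M. CellTiter-Glo luminescence; inhibition calculated against DMSO-only cells and medium-only blanks.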

[1] = biological target: T1, β5i subunit of the 20S proteasome (Homo sapiens, UniProt P20618+P28062); test: Proteasome inhibitory activity, β5i subunit (Raji cells treated with compound, lysed, Ac-ANW-AMC substrate); assay type: cell-based; settings: proteasome from Raji cells incubated with compound 4 h
T1 construct: The proteasome tested in the present disclosure was derived from Raji cells; endogenous in cells; host or cells: Raji cells
Outline: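 Raji cells were treated for 4 h at 37 °C with compound (from 1 μM, 3-fold, 8 concentrations), then lysed. Lysate activity was read 10 min at 37 °C with Ac-ANW-AMC (β5i) or Suc-LLVY-AMC (β5c) at 345/445 nm. Percent inhibition was relative to DMSO-treated lysate.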

Compound	IC50 (MM.1S cell strain)	IC50 [1]
Cc1ccc(C[C@H](NC(=O)C(C)C(=O)NCc2ccc(Cl)cc2Cl)B(O)O)cc1 (stereo partly drawn) [Example 59, ((1R)-1-(3-((2,4-dichlorobenzyl)amino)-2-methyl-3-oxopropionamido)-2-(p-tolyl)ethyl)boric acid]	≤ 50 nM	≤ 50 nM
COc1cccc(CCNC(=O)C(C)C(=O)N[C@@H](Cc2coc3ccccc23)B(O)O)c1 (stereo partly drawn) [Example 63, ((1R)-2-(benzofuran-3-yl)-1-(3-((3-methoxyphenylethyl)amino)-2-methyl-3-oxopropionamido)ethyl)boric acid]	≤ 50 nM	≤ 50 nM
